Series [1] has as its target Mitogen-activated protein kinase 14 (Homo sapiens, UniProt Q16539).
Series [2] is described as follows: Half life in Sprague-Dawley rat at 2 mg/kg, po and 1 mg/kg, iv by LC-MS/MS analysis. Format: ADME, organism-based. The following applies: in vivo.
The target in series [3] is Toll-like receptor 2 (Homo sapiens) (UniProt O60603). The experiment in a line: Activation of TLR2 receptor in human monocytes assessed as inhibition of Pam2Csk4-stimulated TNF-alpha production preincubated for 30 mins prior to Pam2Csk4 stimulation at 1 uM measured after 6 hrs by immunoassay. Format: cell-based.
Sequence of Toll-like receptor 2 (Homo sapiens) (O60603 whole entry): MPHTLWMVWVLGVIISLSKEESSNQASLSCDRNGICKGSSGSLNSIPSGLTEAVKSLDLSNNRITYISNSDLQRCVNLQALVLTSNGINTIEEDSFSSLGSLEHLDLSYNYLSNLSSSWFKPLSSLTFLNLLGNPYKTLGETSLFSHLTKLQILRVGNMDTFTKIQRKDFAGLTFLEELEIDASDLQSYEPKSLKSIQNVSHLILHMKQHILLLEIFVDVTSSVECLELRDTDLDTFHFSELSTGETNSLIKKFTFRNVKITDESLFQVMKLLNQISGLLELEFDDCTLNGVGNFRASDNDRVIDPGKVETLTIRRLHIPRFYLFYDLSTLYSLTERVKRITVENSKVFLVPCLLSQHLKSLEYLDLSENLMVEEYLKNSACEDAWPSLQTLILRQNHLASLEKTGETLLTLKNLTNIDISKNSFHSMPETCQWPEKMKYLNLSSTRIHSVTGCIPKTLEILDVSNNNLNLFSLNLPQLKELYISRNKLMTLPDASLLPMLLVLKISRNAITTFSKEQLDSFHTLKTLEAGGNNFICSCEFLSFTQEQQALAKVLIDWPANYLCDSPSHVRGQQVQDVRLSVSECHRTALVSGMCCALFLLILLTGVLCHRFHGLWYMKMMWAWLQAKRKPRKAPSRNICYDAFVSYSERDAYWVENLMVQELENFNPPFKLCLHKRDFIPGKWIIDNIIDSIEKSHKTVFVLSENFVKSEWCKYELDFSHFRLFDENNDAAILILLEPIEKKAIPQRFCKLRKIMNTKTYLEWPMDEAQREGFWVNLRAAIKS
Series [4] relates to Mus musculus. As to the kind of experiment: Antiinflammatory activity in C57Bl/6 mouse assessed as inhibition of LPS-induced serum KC level at 10 mg/kg, po for 15 mins prior to LPS-challenge measured after 2.5 hrs. Format: functional, organism-based.
Series [5] is described as follows: Cmax in Sprague-Dawley rat at 2 mg/kg, po administered through cassette dosing as by LC-MS/MS analysis. Format: ADME, organism-based. Also noted: dose 2 mg/kg, route oral. The following applies: in vivo.
Series [6] addresses T1, Toll-like receptor 7 (Homo sapiens) (UniProt Q9NYK1).
T1 sequence (whole entry): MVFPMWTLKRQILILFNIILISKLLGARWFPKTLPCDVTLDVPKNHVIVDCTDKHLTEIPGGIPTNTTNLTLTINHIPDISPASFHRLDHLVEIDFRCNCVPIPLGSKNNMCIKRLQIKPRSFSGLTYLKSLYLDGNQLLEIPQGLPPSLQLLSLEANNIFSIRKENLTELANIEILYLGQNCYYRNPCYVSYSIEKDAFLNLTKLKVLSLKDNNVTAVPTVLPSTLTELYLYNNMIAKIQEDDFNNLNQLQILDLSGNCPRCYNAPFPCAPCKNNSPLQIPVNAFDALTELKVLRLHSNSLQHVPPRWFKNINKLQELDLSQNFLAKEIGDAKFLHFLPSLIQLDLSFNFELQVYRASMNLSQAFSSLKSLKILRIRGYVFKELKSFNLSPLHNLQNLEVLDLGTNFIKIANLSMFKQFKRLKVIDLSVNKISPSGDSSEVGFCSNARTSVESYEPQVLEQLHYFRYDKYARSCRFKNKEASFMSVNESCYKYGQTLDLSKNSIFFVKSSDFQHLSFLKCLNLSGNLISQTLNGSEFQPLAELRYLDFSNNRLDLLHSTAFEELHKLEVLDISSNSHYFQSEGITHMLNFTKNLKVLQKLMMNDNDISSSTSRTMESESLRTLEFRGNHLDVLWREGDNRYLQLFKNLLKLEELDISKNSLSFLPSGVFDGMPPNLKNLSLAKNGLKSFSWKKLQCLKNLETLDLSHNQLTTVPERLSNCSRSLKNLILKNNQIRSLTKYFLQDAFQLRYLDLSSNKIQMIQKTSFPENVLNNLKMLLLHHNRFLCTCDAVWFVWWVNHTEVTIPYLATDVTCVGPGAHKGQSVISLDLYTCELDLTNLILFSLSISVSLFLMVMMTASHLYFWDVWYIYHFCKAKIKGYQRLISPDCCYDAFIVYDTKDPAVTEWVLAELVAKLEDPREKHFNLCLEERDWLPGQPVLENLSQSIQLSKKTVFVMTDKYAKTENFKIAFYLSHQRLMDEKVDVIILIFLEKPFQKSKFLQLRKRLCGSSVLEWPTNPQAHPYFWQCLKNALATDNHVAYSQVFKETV
As to the kind of experiment: Activation of TLR7 receptor in human monocytes assessed as inhibition of gardiquimod-stimulated IL8 production preincubated for 30 mins prior to gardiquimod stimulation at 1 uM measured after 6 hrs by immunoassay. Format: cell-based.

Series [7] is described as follows: Volume of distribution at steady state in C57BL/6 mouse at 2 mg/kg, po or 1 mg/kg, iv by LC-MS/MS analysis. Format: ADME, organism-based. The following applies: in vivo, read-out: Vdss.
Series [8] in a line: AUC in Sprague-Dawley rat at 2 mg/kg, po administered through cassette dosing by LC-MS/MS analysis. The format is ADME, organism-based. The following applies: in vivo.
For another series, the system named is Intestinal mucosa. As to the kind of experiment: Inhibition of TNFalpha production in intestinal mucosa derived from ulcerative colitis patient measured after 24 hrs by sandwich ELISA. Format: functional, tissue-based. To be noted: Homo sapiens.
Series [9] in a line: Volume of distribution at steady state in Sprague-Dawley rat at 2 mg/kg, po or 1 mg/kg, iv by LC-MS/MS analysis. The format is ADME, organism-based. To be noted: in vivo, read-out: Vdss.
Series [10] deals with Receptor-interacting serine/threonine-protein kinase 3 (Homo sapiens, UniProt Q9Y572). As to the kind of experiment: Inhibition of RIPK3 (unknown origin) in HEK-293 cells assessed as necroptic cell death at 10 uM by cell-based assay. To be noted: HEK293.
Sequence of Receptor-interacting serine/threonine-protein kinase 3 (Q9Y572 whole entry, looked up): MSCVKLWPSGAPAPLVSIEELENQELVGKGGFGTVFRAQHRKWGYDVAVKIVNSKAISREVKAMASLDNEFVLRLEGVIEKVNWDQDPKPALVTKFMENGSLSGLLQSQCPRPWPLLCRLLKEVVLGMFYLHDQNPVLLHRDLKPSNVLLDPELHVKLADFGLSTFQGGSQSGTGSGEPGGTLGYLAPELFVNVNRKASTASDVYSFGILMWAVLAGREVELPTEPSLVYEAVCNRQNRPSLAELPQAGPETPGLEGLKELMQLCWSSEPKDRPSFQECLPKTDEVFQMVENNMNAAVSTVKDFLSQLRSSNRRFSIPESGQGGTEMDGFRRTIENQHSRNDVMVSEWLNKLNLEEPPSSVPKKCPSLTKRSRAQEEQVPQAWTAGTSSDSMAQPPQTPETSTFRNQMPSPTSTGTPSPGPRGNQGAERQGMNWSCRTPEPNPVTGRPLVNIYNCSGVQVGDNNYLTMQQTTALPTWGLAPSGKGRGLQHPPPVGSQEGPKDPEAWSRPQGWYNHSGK
Series [11] has as its system Mus musculus. As to the kind of experiment: Antiinflammatory activity in Balb/c mouse model of L18-MDP-induced inflammatory peritonitis assessed as inhibition of serum KC level into peritoneal cavity administered orally for 15 mins prior to L18-MDP-challenge measured after 4 hrs. Format: functional, organism-based.
Series [12] deals with T2, Aurora kinase A (Homo sapiens) (UniProt O14965).
T2 sequence (whole entry): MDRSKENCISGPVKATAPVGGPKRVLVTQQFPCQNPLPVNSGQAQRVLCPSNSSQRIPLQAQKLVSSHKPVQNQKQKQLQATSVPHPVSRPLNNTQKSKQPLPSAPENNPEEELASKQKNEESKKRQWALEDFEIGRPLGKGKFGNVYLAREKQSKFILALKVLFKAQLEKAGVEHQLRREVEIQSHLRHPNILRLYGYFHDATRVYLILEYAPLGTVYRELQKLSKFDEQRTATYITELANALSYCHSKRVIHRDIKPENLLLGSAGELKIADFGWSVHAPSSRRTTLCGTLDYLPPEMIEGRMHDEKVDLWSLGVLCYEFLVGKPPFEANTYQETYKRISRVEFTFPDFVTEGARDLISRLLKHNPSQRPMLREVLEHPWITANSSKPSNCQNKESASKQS
As to the kind of experiment: Inhibition of human full length N-terminal GST-tagged aurora-a expressed in baculovirus expression system at 1 uM.

Series [13] is described as follows: Clearance in Sprague-Dawley rat at 2 mg/kg, po or 1 mg/kg, iv by LC-MS/MS analysis. Format: ADME, organism-based. To be noted: in vivo.
A short description of series [14]: AUC in C57BL/6 mouse at 2 mg/kg, po by LC-MS/MS analysis. Format: ADME, organism-based. To be noted: in vivo.

The term pIC50 denotes −log10 of the IC50, conventionally taken in molar units. Low readings indicate a high IC50, high ones a low IC50. The term half-life denotes how long it takes for the measured level to halve. A lower half-life goes with rapid decline. The inhibition is the relative decrease from the control value, in per cent. One may read the Cmax as the highest concentration seen after dosing. One may read the AUC as concentration integrated over time. Read a high AUC as high exposure.

pIC50: −log10 of the molar value. Activity calls are given as the source filed them. The calls are words filed in the database; no cut-off is given here.

Sequence of Mitogen-activated protein kinase 14 (Q16539 whole entry): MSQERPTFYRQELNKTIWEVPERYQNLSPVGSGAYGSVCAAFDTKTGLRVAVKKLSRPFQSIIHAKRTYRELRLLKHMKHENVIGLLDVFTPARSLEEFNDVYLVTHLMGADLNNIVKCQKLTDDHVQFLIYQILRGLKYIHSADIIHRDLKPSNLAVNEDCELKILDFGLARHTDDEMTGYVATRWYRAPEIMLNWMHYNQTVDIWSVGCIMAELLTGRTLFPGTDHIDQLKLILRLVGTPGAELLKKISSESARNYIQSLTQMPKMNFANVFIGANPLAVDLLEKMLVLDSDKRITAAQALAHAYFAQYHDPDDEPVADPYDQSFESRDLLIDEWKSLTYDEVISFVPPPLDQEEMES

As to `CC(C)(C)S(=O)(=O)c1ccc2nccc(Nc3n[nH]c4ccc(F)cc34)c2c1`, the pIC50 in series [1] was 5.29. In addition, the half-life in series [2] was 3.1 h. Besides, the inhibition result in [3] and in series [6] was “Active” in each case. The inhibition entry (in the series with Mus musculus [4]; in [10]) was “inactive” each time. For the same molecule, in series [5], the concentration peaked (Cmax) at 260 ng/mL. Further, the figures for the Vd in series [7] and in series [9] were 1.2 L/kg and 2 L/kg, respectively. The AUC in [8] amounted to 980 ng·h/mL; in series [14], 860 ng·h/mL. For the same molecule, the inhibition entry was “Dose-dependent effect” with Intestinal mucosa and 30% in series [12]. Further, the Activity entry in the series with Mus musculus [11] is “Dose-dependent effect”. The clearance in series [13] was determined as 15 mL/min/kg.

For the origin of these results see ChEMBL document CHEMBL3822396 (J Med Chem, 2016).
